Laboratory results published in ChEMBL document CHEMBL4266042, “Total Synthesis of Norsampsones A and B, Garcinielliptones N and O, and Hyperscabrin A” (J Nat Prod, 2018).

What was measured:
Format in all cases: functional, cell-based
A549 = experiment: Cytotoxicity against human A549 cells after 3 to 5 days by CellTiter-Glo assay
786-0 = experiment: Cytotoxicity against human 786-O cells after 3 to 5 days by CellTiter-Glo assay
SNU1 = experiment: Cytotoxicity against human SNU1 cells after 3 to 5 days by CellTiter-Glo assay
KMS-11 = experiment: Cytotoxicity against human KMS11 cells after 3 to 5 days by CellTiter-Glo assay

Measured: IC50

COC(=O)[C@@]1(CC=C(C)C)C[C@H](CC=C(C)C)C(C)(C)[C@H](C(=O)C(C)C)C1=O
> 10 µM: all assays above

COC(=O)[C@]1(CC=C(C)C)C[C@H](CC=C(C)C)C(C)(C)[C@H](C(=O)C(C)C)C1=O
> 10 µM: all assays above

CC(C)=CC[C@@H]1C[C@H](CC=C(C)C)C(C)(C)[C@@H](C(=O)C(C)C)C1=O
> 10 µM: all assays above

CC(C)=CCCC(=O)[C@]1(CC=C(C)C)C[C@H](CC=C(C)C)C(C)(C)[C@H](C(=O)c2ccccc2)C1=O
> 10 µM: all assays above

CC(C)=CC[C@@H]1C[C@H](CC=C(C)C)C(C)(C)[C@H](C(=O)C(C)C)C1=O
> 10 µM: all assays above

COC(=O)[C@]1(CC=C(C)C)C[C@H](CC=C(C)C)C(C)(C)[C@@H](C(=O)C(C)C)C1=O
> 10 µM: all assays above

CC(C)=CCCC(=O)[C@]1(CC=C(C)C)C[C@H](CC=C(C)C)C(C)(C)[C@@H](C(=O)c2ccccc2)C1=O
> 10 µM: all assays above
